Test [1] has as its system HCV replicon cells (Huh-7 cells). Description: Inhibition of replicon RNA levels (3-day assay, Taqman). The conditions noted are these: Hepatitis C virus. The test is classed as cell-based. As to the method:
Replicon cells are seeded at ˜5000 cells/well in 96-well collagen I-coated Biocoat plates (Becton Dickinson). Twenty-four hrs post-seeding, inhibitors diluted in DMSO are added to replicon cells (Huh-7 cells). The final concentrations of DMSO and fetal bovine serum are 1% and 10%, respectively. SCH 503034 is serially diluted at 1:2 for a 10-point titration. To each concentration of the SCH 503034, the second inhibitor, HCV-796 or rhIFN-α2b control is titrated in. IFN-α is serially diluted at 1:3, whereas HCV RNA polymerase inhibitor, HCV-796, is serially diluted at 1:2. […] All samples are tested in triplicate. Media and inhibitors are refreshed daily for 3 days at which point the cells are washed with PBS and lysed in 1× cell lysis buffer (Ambion cat #8721). The replicon RNA level is measured using real time PCR (Taqman assay) The amplicon is located in 5B. The PCR primers are: 5B.2F, […] (SEQ ID NO:1) and 5B.2R, […] (SEQ ID NO:2). The probe sequence is FAM-labeled […] (SEQ ID NO:3). GAPDH RNA is used as an endogenous control and is amplified in the same reaction as NS5B (multiplex PCR) using primers and VIC-labeled probe recommended by the manufacturer (PE Applied Biosystem). The real-time RT-PCR reactions are run on an AB1 PRISM 7900HT Sequence Detection System using the following program: 48° C. for 30 min, 95° C. for 10 min, 40 cycles of 95° C. for 15 sec, […] for 1 min. […]
For orientation: Replicon systems follow genome replication, usually without infectious particles.

For another test, the system named is Huh7-BB7 cells. Description: Selection of replicon variants with reduced susceptibility, Study B. In kind it is cell-based, HCV genotype 1b. To be noted: prolonged treatment. Here is the method:
Huh7-BB7 cells are plated at a density of 2-3×10^5 cells per T25 flask and cultured in DMEM medium with 2% FCS in the absence of G418. The cells are treated with DMSO as a control, or HCV-796 alone at 40 and 80 nM, or SCH 503034 alone at 200, 400, 600 and 800 nM, or a combination of HCV-796 and SCH 503034 at 40/400, 80/400, 40/800 and 80/800 nM, respectively, for HCV-796 and SCH 503034. The DMSO concentration in both drug-treated and control cells is 0.5% (v/v). Tissue culture plates are incubated in a 37° C. incubator containing 5% CO2. When cells reach about 80% confluence (about 2-3 days), cells are passaged in a 1:3 dilution and the old medium is replaced with fresh medium containing the compounds at the respective concentrations. Cell pellets containing […] are collected during each passage, and monitored for HCV RNA using quantitative Taqman RT-PCR as described above. […]
Drug susceptibility of the replicon variants is evaluated as previously described in the section “Intracellular antiviral activities in HCV Replicon”. […] The plate is incubated for 72 hours at 37° C. and 5% CO2 before quantification of HCV and GAPDH RNAs. The amounts of HCV, rRNA and GAPDH RNAs are quantified using the TaqMan RT-PCR assay as described above (see Quantification of HCV and 18S Ribosomal RNAs).

Test [2] has as its system replicon variants with reduced susceptibility to HCV-796, including C316Y. Description: Susceptibility of HCV-796 resistant replicons to SCH 503034. The test is classed as cell-based. To be noted: 72 hours, vs wild-type replicon. Here is the method: The antiviral activity of SCH 503034 against the replicon variants that have shown reduced susceptibility to HCV-796 is evaluated. Briefly, the replicon-containing cells are seeded in 96-well plates at a subconfluent density (7000 cells/well) in a medium containing 2% FBS without G418. SCH 503034 solubilized with 100% dimethylsulfoxide (DMSO) is prepared in a […], 2-fold dilution series, with a final DMSO concentration of 0.5% and a final volume of […]. The final concentrations for SCH 503034 are […], 6.3, 12.5, 25, 50, 100, 200, 400, 800, 1600 and 3200 nM. The plate is incubated for 72 hours at 37° C. and 5% CO2 before quantification of HCV and GAPDH RNAs.

The values below come from patent US20070224167A1, “Novel HCV inhibitor combinations and methods” (priority 2006, published 2007).

For `CNC(=O)c1c(-c2ccc(F)cc2)oc2cc(N(CCO)S(C)(=O)=O)c(C3CC3)cc12` [HCV-796, 5-cyclopropyl-2-(4-fluoro-phenyl)-6-[(2-hydroxy-ethyl)-methanesulfonyl-amino]-benzofuran-3-carboxylic acid methylamide], the IC90 in test [1] stood at 30 nM. Also, the “Selection of resistant replicon variants” value in the test on Huh7-BB7 cells (up to 80 nM HCV-796 alone) was “selection of replicon variants that have reduced susceptibility”.

On to `CC(C)(C)NC(=O)N[C@H](C(=O)N1C[C@H]2[C@@H]([C@H]1C(=O)NC(CC1CCC1)C(=O)C(N)=O)C2(C)C)C(C)(C)C` (stereo partly drawn) [SCH 503034, (1R,5S)—N-[3-amino-1-(cyclobutylmethyl)-2,3-dioxopropyl]-3-[2(S)-[[[(1,1-dimethylethyl)amino]carbonyl]amino]-3,3-dimethyl-1-oxobutyl]-6,6-dimethyl-3-azabicyclo[3.1.0]hexan-2(S)-carboxamide], for which the entries for the “Activity of SCH 503034 on HCV-796 resistant replicons” value in test [2] and in test [2] (listed as SCH-503034) were “active” and “equivalent inhibitory activity”, respectively. In test [1], this molecule had an IC90 of 400 nM. The “Selection of resistant replicon variants” value with Huh7-BB7 cells (800 nM SCH 503034 alone) is reported as “selection of replicon variants that have reduced susceptibility”.

In general, IC90 refers to the concentration at which the effect reaches the 90% level.
